Laboratory results reported in PMC8241002, “A tumor-targeting cRGD-EGFR siRNA conjugate and its anti-tumor effect on glioblastoma in vitro and in vivo” (Drug Delivery, 2017).
Oligonucleotides are written 5' to 3', each unit as a sugar letter and its base; * is a phosphorothioate linkage, no mark a phosphodiester; rarer units and linkages stand in square brackets, end groups in braces. Plain capitals give the bases only. d = 2'-deoxy (DNA); m = 2'-O-methyl; r = 2'-OH (RNA)

Columns and labels:
[1] = system: EGFR mRNA; assay: Gene silencing efficiency of EGFR siRNA sequences complexed with Lipofectamine 2000 (qRT-PCR); assay type: cell-based, human; conditions: U87MG cells, 48 h, complexed with Lipofectamine 2000, EGFR mRNA by qRT-PCR, n=3
Experimental: The relative expression level of EGFR mRNA was tested by qRT-PCR.
The qRT-PCR and western blot analysis were conducted as previously described (Liu et al., [2014]).
(§1) Figure S1. The characterization of cRGD-siEGFR conjugates and silencing efficiency of EGFR siRNA sequences. (A) The identification of cRGD-siEGFR by HPLC-MS. The measured mass of the sense strand conjugated with cRGD is 7923.4 Da (predicted mass is 7921.4 Da). (B) The analysis of purified cRGD-siEGFR with RP-HPLC. The purity of cRGD-siEGFR, calculated by the peak area normalization method, was 88.0%. (C) The serum stability of cRGD-siEGFR and EGFR siRNA sequences. Molecules were incubated in mouse serum at 37°C for the indicated time periods and then analyzed using agarose (1.2%) gel electrophoresis. (D) Gene silencing efficiency. U87MG cells were treated for 48 h with EGFR-targeting siRNAs, complexed with Lipofectamine 2000. The expression level of EGFR mRNA was analyzed by qRT-PCR. * P<0.05 vs. control group, # P<0.05 vs. siNC group, n=3

[2] = Serum stability in mouse serum (agarose gel electrophoresis); assay type: in vitro ADME; conditions: 37 °C
Experimental: Five microliters of 20 μM cRGD-siEGFR or EGFR siRNA was mixed with 5 μL of mouse serum and incubated at 37 °C for 0, 12, 24, 36 and 48 h. Aliquots were taken at each of the time points and subjected to electrophoresis in 1.2% non-denaturing agarose gels.
as §1

Substance | silencing efficiency [1] | stability (three 2′-O-Me modifications on both ends of both strands) ([2]; mouse serum, agarose gel electrophoresis) | degradation in mouse serum after 24 h ([2]; 5 μL of 20 μM mixed with 5 μL mouse serum, 24 h, 1.2% non-denaturing agarose gel electrophoresis)
EGFR siRNA-C: Sense 5’mCmAmAAGUGUGUAACGGAmAmUmAdTdT-3’; antisense 5’mUmAmUUCCGUUACACACUmUmUmGdTdT-3’ (sense CAAAGUGUGUAACGGAAUATT; antisense UAUUCCGUUACACACUUUGTT; sugars from the 5' end m3 r13 m3 d2, backbone not given here; further chemistry not fully specified) | over 80% | obviously improved | 
unmodified RNA oligonucleotides: Sense 5’CAAAGUGUGUAACGGAAUAdTdT-3’; antisense 5’UAUUCCGUUACACACUUUGdTdT-3’ (sense rCrArArArGrUrGrUrGrUrArArCrGrGrArArUrAdTdT; antisense rUrArUrUrCrCrGrUrUrArCrArCrArCrUrUrUrGdTdT) |  |  | mostly degraded
